Our source for the IC50 values is patent US11214565B2, “Compound, compositions, and methods” (Denali Therapeutics Inc., priority 2015, dated 2022).

Sequence of LRRK2 G2019S enzyme (Q5S007 whole entry G2019S): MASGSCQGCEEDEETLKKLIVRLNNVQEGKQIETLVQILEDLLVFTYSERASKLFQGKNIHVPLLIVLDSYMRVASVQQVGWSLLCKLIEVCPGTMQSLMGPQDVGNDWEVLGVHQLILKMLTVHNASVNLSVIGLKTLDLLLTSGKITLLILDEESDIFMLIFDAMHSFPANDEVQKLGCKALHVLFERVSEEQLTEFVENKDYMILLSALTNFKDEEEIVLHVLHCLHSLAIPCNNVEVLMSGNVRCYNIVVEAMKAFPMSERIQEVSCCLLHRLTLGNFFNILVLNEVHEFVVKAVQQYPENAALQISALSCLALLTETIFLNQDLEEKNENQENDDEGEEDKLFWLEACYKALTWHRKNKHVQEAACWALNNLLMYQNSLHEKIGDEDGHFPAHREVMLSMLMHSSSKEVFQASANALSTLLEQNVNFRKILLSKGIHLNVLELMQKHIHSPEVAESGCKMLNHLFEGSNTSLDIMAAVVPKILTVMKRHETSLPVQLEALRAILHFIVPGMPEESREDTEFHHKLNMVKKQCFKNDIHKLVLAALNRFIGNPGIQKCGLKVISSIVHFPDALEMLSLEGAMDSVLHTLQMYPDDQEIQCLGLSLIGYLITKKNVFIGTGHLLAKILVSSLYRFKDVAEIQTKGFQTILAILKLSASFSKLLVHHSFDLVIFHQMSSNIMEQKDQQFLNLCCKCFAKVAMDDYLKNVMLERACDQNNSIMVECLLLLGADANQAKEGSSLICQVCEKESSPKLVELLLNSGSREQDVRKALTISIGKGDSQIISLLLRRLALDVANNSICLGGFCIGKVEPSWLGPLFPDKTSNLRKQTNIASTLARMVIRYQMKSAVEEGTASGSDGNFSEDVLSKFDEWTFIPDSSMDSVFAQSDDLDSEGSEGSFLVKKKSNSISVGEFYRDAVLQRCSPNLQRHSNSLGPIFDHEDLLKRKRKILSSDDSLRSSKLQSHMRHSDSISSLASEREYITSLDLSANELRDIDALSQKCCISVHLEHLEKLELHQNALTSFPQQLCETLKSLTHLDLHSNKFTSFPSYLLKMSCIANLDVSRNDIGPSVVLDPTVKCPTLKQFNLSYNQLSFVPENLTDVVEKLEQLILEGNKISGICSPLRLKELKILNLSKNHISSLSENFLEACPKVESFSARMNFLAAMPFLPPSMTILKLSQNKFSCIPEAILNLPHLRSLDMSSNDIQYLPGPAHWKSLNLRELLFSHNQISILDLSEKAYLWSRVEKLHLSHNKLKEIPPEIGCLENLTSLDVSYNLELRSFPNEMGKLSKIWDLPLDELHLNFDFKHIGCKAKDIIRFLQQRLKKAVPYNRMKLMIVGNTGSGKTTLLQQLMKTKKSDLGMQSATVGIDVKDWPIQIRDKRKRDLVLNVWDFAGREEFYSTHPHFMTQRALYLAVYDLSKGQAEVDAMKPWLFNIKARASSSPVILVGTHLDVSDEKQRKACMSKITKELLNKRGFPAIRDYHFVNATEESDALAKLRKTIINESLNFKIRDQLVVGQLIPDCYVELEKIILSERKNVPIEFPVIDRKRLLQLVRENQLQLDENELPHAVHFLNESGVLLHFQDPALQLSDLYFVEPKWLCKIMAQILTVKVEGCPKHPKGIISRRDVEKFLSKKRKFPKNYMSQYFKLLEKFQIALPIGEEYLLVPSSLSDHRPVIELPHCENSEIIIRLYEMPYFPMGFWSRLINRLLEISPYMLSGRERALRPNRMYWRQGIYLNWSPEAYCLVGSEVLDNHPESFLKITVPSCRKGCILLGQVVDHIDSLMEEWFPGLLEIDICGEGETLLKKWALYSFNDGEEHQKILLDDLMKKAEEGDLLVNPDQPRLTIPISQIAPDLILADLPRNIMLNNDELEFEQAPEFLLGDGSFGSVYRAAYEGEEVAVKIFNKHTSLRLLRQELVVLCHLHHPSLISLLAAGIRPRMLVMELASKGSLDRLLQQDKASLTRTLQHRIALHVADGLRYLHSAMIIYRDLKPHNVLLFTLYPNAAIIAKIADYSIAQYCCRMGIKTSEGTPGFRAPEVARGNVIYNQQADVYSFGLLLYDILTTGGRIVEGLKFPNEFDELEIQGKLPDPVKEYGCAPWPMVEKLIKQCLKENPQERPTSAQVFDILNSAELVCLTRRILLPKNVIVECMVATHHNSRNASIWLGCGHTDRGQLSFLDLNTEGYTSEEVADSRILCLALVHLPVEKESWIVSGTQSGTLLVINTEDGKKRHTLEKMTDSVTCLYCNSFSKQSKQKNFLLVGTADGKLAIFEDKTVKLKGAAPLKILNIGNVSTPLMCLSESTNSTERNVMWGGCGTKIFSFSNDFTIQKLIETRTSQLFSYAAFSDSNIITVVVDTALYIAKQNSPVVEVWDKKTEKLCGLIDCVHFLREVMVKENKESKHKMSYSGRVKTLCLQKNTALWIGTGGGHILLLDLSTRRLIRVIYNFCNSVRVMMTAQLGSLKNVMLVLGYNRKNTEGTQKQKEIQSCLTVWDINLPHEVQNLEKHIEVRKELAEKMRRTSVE

This assay has as its target LRRK2 G2019S enzyme (Homo sapiens (Human), UniProt Q5S007, G2019S). Nature of the assay: LRRK2 G2019S TR-FRET biochemical kinase assay (LRRKtide substrate). As to conditions: Table D-4; 5 nM LRRK2, 134 μM ATP, 60 minute reaction, 23° C. In a few lines:
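5 nM LRRK2 G2019S preincubated 20 min with LRRKtide and compound (3.162-fold dilution series) in Tris pH 7.5, MgCl2, EGTA, Brij-35, DTT, then reacted 60 min at 23 °C with 134 μM ATP. EDTA-stopped; pLRRKtide antibody detection, TR-FRET read at 340 nm excitation, 520/490–495 nm emission.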
`Cc1c(Nc2ncc(C(F)(F)F)c(NCC(F)F)n2)cnn1[C@H]1C[C@@H](n2cccn2)C1` [Compound D-63]: the IC50 – broadly, the point on the concentration scale where inhibition reaches its midpoint – was below 30 nM.
The value for `CNc1nc(Nc2cnn([C@H]3C[C@H](n4cc(F)cn4)C3)c2C)ncc1C(F)(F)F` [Compound D-64] was below 30 nM; that for `CCNc1nc(Nc2cnn(C3CCn4nccc43)c2C)ncc1C(F)(F)F` [Compound D-65] was below 30 nM; that for `CCNc1nc(Nc2cn([C@H]3C[C@H](c4cocn4)C3)nc2C)ncc1C(F)(F)F` [Compound D-66] was below 30 nM.
As for `CNc1nc(Nc2cn(C3CCn4cncc43)nc2C)ncc1C(F)(F)F` [Compound D-67], the figure is above 60 nM.
The value for `CCOc1nc(Nc2cn(C3CCn4ccnc43)nc2C)ncc1C(F)(F)F` [Compound D-68] was above 60 nM.
`CNc1nc(Nc2cn(C3CCC(n4ccnn4)C3)nc2C)ncc1C(F)(F)F` [Compound D-69] displayed an IC50 below 30 nM.
The molecule `CNc1nc(Nc2cnn(C(C)COC(F)F)c2C)ncc1C(F)(F)F` [Compound D-70] came in with a concentration for half-maximal inhibition (IC50) below 30 nM.
As for `CNc1nc(Nc2cnn([C@H]3C[C@H](n4cccn4)C3)c2C)ncc1C(F)(F)F` [Compound D-71], the figure is below 30 nM; as for `CNc1nc(Nc2cn(C3(c4ncnn4C)CCC3)nc2C)ncc1C(F)(F)F` [Compound D-72], above 60 nM.
`CCNc1nc(Nc2cnn([C@H]3C[C@H](n4ccnn4)C3)c2C)ncc1C(F)(F)F` [Compound D-73] gave an IC50 below 30 nM.
The value for `CCNc1nc(Nc2cn(C3Cc4nccn4C3)nc2C)ncc1C(F)(F)F` [Compound D-74] was below 30 nM; that for `Cc1c(Nc2ncc(C(F)(F)F)c(NCC(F)F)n2)cnn1[C@H]1C[C@H](n2nccn2)C1` [Compound D-75] was below 30 nM; that for `CCNC(=O)C(F)(F)n1cc(Nc2ncc(C(F)(F)F)c(NCC)n2)c(C)n1` [Compound D-76] was below 30 nM.
As for `CNc1nc(Nc2cnn([C@H]3C[C@@H](n4nccn4)C3)c2C)ncc1C(F)(F)F` [Compound D-77], the figure is below 30 nM; as for `CCNc1nc(Nc2cnn(C3CCCn4ccnc43)c2C)ncc1C(F)(F)F` [Compound D-78], above 60 nM.
The value for `CCNc1nc(Nc2cn(C3CCc4c(C)noc43)nc2C)ncc1C(F)(F)F` [Compound D-79] was below 30 nM.
In turn, `CCNc1nc(Nc2cn(C(C)COC(F)F)nc2C)ncc1C(F)(F)F` [Compound D-80] registered an IC50 below 30 nM.
As for `CCNc1nc(Nc2cnn([C@H]3C[C@@H](N4CCOCC4)C3)c2C)ncc1C(F)(F)F` [Compound D-81], the figure is below 30 nM; as for `CCNc1nc(Nc2cnn(C(C)COC(F)F)c2C)ncc1C(F)(F)F` [Compound D-82], below 30 nM.
As for `CNc1nc(Nc2cn([C@H]3C[C@@H](c4nncs4)C3)nc2C)ncc1C(F)(F)F` [Compound D-83], the figure is below 30 nM; as for `CCNc1nc(Nc2cnn([C@H]3C[C@H](c4cocn4)C3)c2C)ncc1C(F)(F)F` [Compound D-84], below 30 nM.
The value for `CCNc1nc(Nc2cnn([C@H]3C[C@H](n4nccn4)C3)c2C)ncc1Br` [Compound D-85] was below 30 nM; that for `Cc1c(Nc2ncc(C(F)(F)F)c(NCC(F)F)n2)cnn1[C@H]1C[C@H](n2cccn2)C1` [Compound D-87] was below 30 nM; that for `CCNc1nc(Nc2cnn([C@H]3C[C@H](n4cc(F)cn4)C3)c2C)ncc1C(F)(F)F` [Compound D-88] was below 30 nM.
`CCNc1nc(Nc2cnn([C@H]3C[C@H](c4nncs4)C3)c2C)ncc1C(F)(F)F` [Compound D-89] returned an IC50 below 30 nM.
The value for `CNc1nc(Nc2cnn(C3CCC(n4nccn4)C3)c2C)ncc1C(F)(F)F` [Compound D-90] was below 30 nM; that for `CCNc1nc(Nc2cnn(C3CCc4c(C)noc43)c2C)ncc1C(F)(F)F` [Compound D-91] was below 30 nM.
The molecule `CCNc1nc(Nc2cn(C3CCCn4ccnc43)nc2C)ncc1C(F)(F)F` [Compound D-92] registered an IC50 of 30 to 60 nM.
The molecule `CCNc1nc(Nc2cnn([C@H]3C[C@@H](n4cccn4)C3)c2C)ncc1C(F)(F)F` [Compound D-93] registered an IC50 below 30 nM.
As to `CNc1nc(Nc2cn([C@H]3C[C@H](n4cccn4)C3)nc2C)ncc1C(F)(F)F` [Compound D-94], the IC50 is below 30 nM.
As for `CNc1nc(Nc2cn(C3CCCc4c3cnn4C)nc2C)ncc1C(F)(F)F` [Compound D-95], the figure is above 60 nM; as for `CCNc1nc(Nc2cnn(C3CCc4ncsc43)c2C)ncc1C(F)(F)F` [Compound D-97], below 30 nM; as for `CCNc1nc(Nc2cnn([C@H]3C[C@H](n4cccn4)C3)c2C)ncc1C(F)(F)F` [Compound D-98], below 30 nM.
On to `CNc1nc(Nc2cn(C3CCn4c(Cl)cnc43)nc2C)ncc1C(F)(F)F` [Compound D-99], for which the IC50 is below 30 nM.
`CCNc1nc(Nc2cn(C(F)(F)C(=O)NC)nc2C)ncc1C(F)(F)F` [Compound D-100] showed an IC50 below 30 nM.
`CCNc1nc(Nc2cn(C(F)(F)C(N)=O)nc2C)ncc1C(F)(F)F` [Compound D-101]: the half-inhibitory concentration (IC50) is below 30 nM.
As for `CCNc1nc(Nc2cnn([C@H]3C[C@H](N4CCCC4=O)C3)c2C)ncc1C(F)(F)F` [Compound D-103], the figure is below 30 nM; as for `CCNc1nc(Nc2cnn(C3CCn4ccnc43)c2Cl)ncc1C(F)(F)F` [Compound D-104], below 30 nM; as for `Cc1c(Nc2ncc(C(F)(F)F)c(NC3CC3)n2)cnn1[C@H]1C[C@H](n2cccn2)C1` [Compound D-106], below 30 nM.
For `CNc1nc(Nc2cnn([C@H]3C[C@H](n4cnc(C)n4)C3)c2C)ncc1C(F)(F)F` [Compound D-108], the IC50 is below 30 nM.
As for `CNc1nc(Nc2cnn([C@H]3C[C@H](n4ncnc4C)C3)c2C)ncc1C(F)(F)F` [Compound D-109], the figure is below 30 nM; as for `CCNc1nc(Nc2cnn(C3CCn4cncc43)c2C)ncc1C(F)(F)F` [Compound D-110], below 30 nM.
As for `CNc1nc(Nc2cnn([C@H]3C[C@H](n4cccn4)C3)c2C)ncc1Br` [Compound D-111], the figure is below 30 nM; as for `CNc1nc(Nc2cnn(C3CCC(n4ccnn4)C3)c2C)ncc1C(F)(F)F` [Compound D-112], below 30 nM; as for `CCNc1nc(Nc2cn([C@H]3C[C@@H](c4cocn4)C3)nc2C)ncc1C(F)(F)F` [Compound D-113], below 30 nM.
For the molecule `CNc1nc(Nc2cnn(C3CCC(n4nccn4)C3)c2C)ncc1C(F)(F)F` [Compound D-114], the IC50 is below 30 nM.
As for `CNc1nc(Nc2cn(C3(c4ncn(C)n4)CC3)nc2C)ncc1C(F)(F)F` [Compound D-115], the figure is above 60 nM; as for `CCNc1nc(Nc2cnn([C@H]3C[C@H](OC(F)F)C3)c2C)ncc1C(F)(F)F` [Compound D-116], below 30 nM; as for `CCNc1nc(Nc2cnn([C@H]3C[C@H](n4cncn4)C3)c2C)ncc1C(F)(F)F` [Compound D-117], below 30 nM.
As for `CCNc1nc(Nc2cnn([C@H]3C[C@@H](n4ncnc4C(F)(F)F)C3)c2C)ncc1C(F)(F)F` [Compound D-118], the figure is below 30 nM.
For the molecule `Cc1c(Nc2ncc(C(F)(F)F)c(NC3CC3)n2)cnn1[C@H]1C[C@H](n2nccn2)C1` [Compound D-119], the IC50 is below 30 nM.
`CCOc1nc(Nc2cn(C(F)(F)C(N)=O)nc2C)ncc1C(F)(F)F` [Compound D-120] registered an IC50 below 30 nM.
`CCNc1nc(Nc2cnn([C@H]3C[C@@H](n4ccnn4)C3)c2C)ncc1C(F)(F)F` [Compound D-123] registered an IC50 below 30 nM.
The value for `CNc1nc(Nc2cnn(C3CCC(n4ccnn4)C3)c2C)ncc1C(F)(F)F` [Compound D-124] was below 30 nM; that for `CNc1nc(Nc2cn(C3CCC(n4ccnn4)C3)nc2C)ncc1C(F)(F)F` [Compound D-125] was 30 to 60 nM.
As for `CCNc1nc(Nc2cnn(C3CCc4cn[nH]c43)c2C)ncc1C(F)(F)F` [Compound D-126], the figure is above 60 nM.
As for `COc1nc(Nc2cn(C3CCn4ccnc43)nc2C)ncc1C(F)(F)F` [Compound D-127], the figure is below 30 nM.
Regarding `CNc1nc(Nc2cnn([C@H]3C[C@H](n4nccn4)C3)c2C)ncc1Br` [Compound D-128], the IC50 is below 30 nM.
`COc1nc(Nc2cnn([C@H]3C[C@H](n4nccn4)C3)c2C)ncc1Br` [Compound D-129] gave an IC50 below 30 nM.
As to `CCNc1nc(Nc2cn(C3CCc4nc[nH]c43)nc2C)ncc1C(F)(F)F` [Compound D-131], the IC50 is below 30 nM.
As for `CCNc1nc(Nc2cnn([C@H]3C[C@H](n4cnc(C(F)(F)F)n4)C3)c2C)ncc1C(F)(F)F` [Compound D-135], the figure is below 30 nM.
The value for `CNc1nc(Nc2cn(C3(c4ncn(C)n4)CCC3)nc2C)ncc1C(F)(F)F` [Compound D-136] was below 30 nM; that for `CNc1nc(Nc2cn(C3CCn4ccnc43)nc2C)ncc1C(F)(F)F` [Compound D-137] was below 30 nM.
The value for `CCNc1nc(Nc2cn([C@H]3C[C@H](OC(F)F)C3)nc2C)ncc1C(F)(F)F` [Compound D-138] was below 30 nM; that for `CCNc1nc(Nc2cnn([C@H]3C[C@@H](N4CCCC4=O)C3)c2C)ncc1C(F)(F)F` [Compound D-139] was below 30 nM; that for `CCNc1nc(Nc2cn(C(F)(F)C(=O)NC3CC3)nc2C)ncc1C(F)(F)F` [Compound D-140] was below 30 nM.
In the case of `CNc1nc(Nc2cnn(C3(CC#N)CC3)c2C)ncc1C(F)(F)F` [Compound D-144], the IC50 was below 30 nM.
As for `CCNc1nc(Nc2cnn(C3CCn4nccc43)c2C)ncc1C(F)(F)F` [Compound D-145], the figure is below 30 nM.
The value for `CCNc1nc(Nc2cn(C3CCn4nccc43)nc2C)ncc1C(F)(F)F` [Compound D-146] was below 30 nM; that for `CCNc1nc(Nc2cnn([C@H]3C[C@@H](S(C)(=O)=O)C3)c2C)ncc1C(F)(F)F` [Compound D-147] was below 30 nM.
